# Results taken from article PMC8611843 (BMC Cancer, 2021).
# Read-outs that look alike come from different tables or passages of the source.
# Key:
# [1] = Phase 1 3 + 3 dose-escalation study: safety, DLTs and drug-related AEs (CTCAE v4.03); type: in vivo
# Description: This study was based on a 3 + 3 dose-escalation design (Additional file 1). […] The duration of cycle 0 was 7 days and that of each cycle after cycle 1 was 28 days in principle. Treatment continued until progressive disease (PD) or discontinuation for other reasons (Additional file 1).
# (§1) The primary endpoint was safety. The severity of adverse events (AEs) was evaluated using National Cancer Institute Common Terminology Criteria for Adverse Events version 4.03 [21].
# However, patients with nausea, vomiting, diarrhea, and hypophosphatemia were allowed to continue treatment without interruption by receiving the appropriate care.
# AEs were summarized by System Organ Class and Preferred Term according to the Medical Dictionary for Regulatory Activities, version 20.1. The Kaplan-Meier method was used to estimate the median PFS (mPFS). PFS is defined as the duration of time from day 1 to the date of death or of PD, whichever came first. Patients who received subsequent therapy before confirmation of PD or in whom neither PD nor death was confirmed were censored at the last time point of non-PD confirmation. Clinical benefit rate (CBR) was defined as the percentage of patients achieving complete response (CR) or partial response (PR), or who maintained stable disease (SD) for more than 6 months.
# [2] = Plasma ENT concentration and PK parameters (LC/MS/MS); type: in vivo, Japanese patients
# Description: The PK parameters assessed after single and/or combination therapy included time at which maximum plasma concentration (Cmax) was observed (tmax), and the area under the plasma concentration-time curve from time 0–168 h (AUC0–168).
# [3] = tested on: Ac-K levels in CD19+ cells; experiment: Protein lysine acetylation (Ac-K) levels in PBMCs; type: in vivo, Japanese patients; settings: 24 h after first administration
# Description: Ac-K levels in CD19+ cells, CD56+ CD16- cells, CD14+ monocytes, CD16+ cells, CD3+ T-cells, and CD45+ cells were measured using the previously reported methods, with a modification where antiacetylated lysine monoclonal antibody (BioLegend, San Diego, CA, USA; Clone 15G10, Cat. 623406) was used.
# [4] = tested on: HLA-DR, CD69, ICOS on CD4+ and CD8+ T-cells; experiment: T-cell activation markers on CD4+ and CD8+ T-cells in PBMCs; type: in vivo, Japanese patients; settings: Cohorts 1–3
# Description: Staining of CD3+ cells was performed using antibodies (all from BioLegend) against CD4 (Clone RPA-T4, Cat. 300512), CD8 (Clone SK-1, Cat. 344718), CD69 (Clone FN50, Cat. 310910), inducible T-cell costimulator (ICOS; Clone […], Cat. 313514), and human leukocyte antigen-DR (HLA-DR; Clone L243, Cat. 307630).
# [5] = Electrocardiogram, change in QTc interval; type: in vivo, Japanese patients; settings: patients tested
# Description: as §1
# [6] = tested on: PBMCs derived from lung cancer patients; parameters: method as in PMID 28408401; settings: cited from earlier work
# [7] = once weekly; cited from earlier work
# [8] = tested on: HR+/HER2− advanced or metastatic BC; parameters: method as in PMID 23650416; settings: ENCORE 301, N = 130; cited from earlier work
# [9] = tested on: HR+/HER2− advanced or metastatic BC; settings: BOLERO-2, cited from earlier work
# [10] = Cohort 1 N = 3, ENT 3 mg mono → EXE combo
# [11] = Cohort 2 N = 3, ENT 5 mg mono → EXE combo
# [12] = Cohort 3 N = 3, ENT 10 mg mono → EXE combo
# [13] = Cohort 4 N = 3, ENT 5 mg + EXE combo
# [14] = Total N = 12, as of data cut-off date
smiles,measurement,setting,value
"Nc1ccccc1NC(=O)c1ccc(CNC(=O)OCc2cccnc2)cc1 [ENT, Entinostat]","Anemia, G2 (n patients, drug-related AE)",[1]; [10],1
same,"Back pain, G1 (n patients, drug-related AE)",[1]; [10],1
same,"Diarrhea, G2 (n patients, drug-related AE)",[1]; [10],1
same,"Hypoalbuminemia, G1 (n patients, drug-related AE)",[1]; [10],1
same,"Hypoalbuminemia, G2 (n patients, drug-related AE)",[1]; [10],1
same,"Neutrophil count decreased, G2 (n patients, drug-related AE)",[1]; [10],2
same,"Neutrophil count decreased, G3 (n patients, drug-related AE)",[1]; [10],1
same,"Platelet count decreased, G1 (n patients, drug-related AE)",[1]; [10],2
same,"Pneumonitis, G1 (n patients, drug-related AE)",[1]; [10],1
same,"Weight decreased, G2 (n patients, drug-related AE)",[1]; [10],1
same,"White blood cell count decreased, G1 (n patients, drug-related AE)",[1]; [10],1
same,"White blood cell count decreased, G2 (n patients, drug-related AE)",[1]; [10],1
same,"Anemia, G1 (n patients, drug-related AE)",[1]; [11],1
same,"Decreased appetite, G1 (n patients, drug-related AE)",[1]; [11],1
same,"Diarrhea, G1 (n patients, drug-related AE)",[1]; [11],1
same,"Fatigue, G1 (n patients, drug-related AE)",[1]; [11],1
same,"Gastritis, G1 (n patients, drug-related AE)",[1]; [11],1
same,"Headache, G1 (n patients, drug-related AE)",[1]; [11],1
same,"Hypoalbuminemia, G2 (n patients, drug-related AE)",[1]; [11],1
same,"Hypophosphatemia, G3 (n patients, drug-related AE)",[1]; [11],2
same,"Nausea, G1 (n patients, drug-related AE)",[1]; [11],2
same,"Neutrophil count decreased, G2 (n patients, drug-related AE)",[1]; [11],1
same,"Neutrophil count decreased, G3 (n patients, drug-related AE)",[1]; [11],1
same,"Platelet count decreased, G1 (n patients, drug-related AE)",[1]; [11],1
same,"Platelet count decreased, G3 (n patients, drug-related AE)",[1]; [11],1
same,"White blood cell count decreased, G2 (n patients, drug-related AE)",[1]; [11],1
same,"Anemia, G2 (n patients, drug-related AE)",[1]; [12],1
same,"Back pain, G1 (n patients, drug-related AE)",[1]; [12],1
same,"Decreased appetite, G1 (n patients, drug-related AE)",[1]; [12],1
same,"Fatigue, G1 (n patients, drug-related AE)",[1]; [12],1
same,"Headache, G1 (n patients, drug-related AE)",[1]; [12],1
same,"Hypoalbuminemia, G2 (n patients, drug-related AE)",[1]; [12],2
same,"Hypophosphatemia, G2 (n patients, drug-related AE)",[1]; [12],1
same,"Hypophosphatemia, G3 (n patients, drug-related AE)",[1]; [12],1
same,"Nausea, G1 (n patients, drug-related AE)",[1]; [12],2
same,"Neutrophil count decreased, G2 (n patients, drug-related AE)",[1]; [12],1
same,"Platelet count decreased, G1 (n patients, drug-related AE)",[1]; [12],1
same,"White blood cell count decreased, G2 (n patients, drug-related AE)",[1]; [12],1
same,"Anemia, G3 (n patients, drug-related AE)",[1]; [13],1
same,"Fatigue, G1 (n patients, drug-related AE)",[1]; [13],1
same,"Gastritis, G1 (n patients, drug-related AE)",[1]; [13],1
same,"Hypoalbuminemia, G1 (n patients, drug-related AE)",[1]; [13],1
same,"Hypoalbuminemia, G2 (n patients, drug-related AE)",[1]; [13],1
same,"Hypophosphatemia, G3 (n patients, drug-related AE)",[1]; [13],1
same,"Nausea, G1 (n patients, drug-related AE)",[1]; [13],2
same,"Neutrophil count decreased, G2 (n patients, drug-related AE)",[1]; [13],1
same,"Neutrophil count decreased, G3 (n patients, drug-related AE)",[1]; [13],1
same,"Platelet count decreased, G2 (n patients, drug-related AE)",[1]; [13],1
same,"Platelet count decreased, G3 (n patients, drug-related AE)",[1]; [13],1
same,"Pneumonitis, G1 (n patients, drug-related AE)",[1]; [13],1
same,"Weight decreased, G1 (n patients, drug-related AE)",[1]; [13],1
same,"White blood cell count decreased, G2 (n patients, drug-related AE)",[1]; [13],1
same,"Drug-related hypophosphatemia, grade 1 or 2",[1]; DLT observation period,"one patient in Cohorts 2, 3, and 4"
same,"Drug-related nausea, grade 1",[1]; DLT observation period,one patient in Cohort 3 and two patients in Cohort 4
same,"Drug-related platelet count decreased, grade 1 or 2",[1]; DLT observation period,two patients in Cohort 4
same,DLTs or grade 3–5 AEs,"[1]; DLT observation period, ENT 3 mg or 5 mg once weekly or 10 mg single dose mono, ENT 5 mg weekly + EXE 25 mg/d",no DLTs or grade 3–5 AEs occurred
same,"Anemia, G1 (n patients, drug-related AE)",[1]; [14],1
same,"Anemia, G2 (n patients, drug-related AE)",[1]; [14],2
same,"Anemia, G3 (n patients, drug-related AE)",[1]; [14],1
same,"Back pain, G1 (n patients, drug-related AE)",[1]; [14],2
same,"Decreased appetite, G1 (n patients, drug-related AE)",[1]; [14],2
same,"Diarrhea, G1 (n patients, drug-related AE)",[1]; [14],1
same,"Diarrhea, G2 (n patients, drug-related AE)",[1]; [14],1
same,"Fatigue, G1 (n patients, drug-related AE)",[1]; [14],3
same,"Gastritis, G1 (n patients, drug-related AE)",[1]; [14],2
same,"Headache, G1 (n patients, drug-related AE)",[1]; [14],2
same,"Hypoalbuminemia, G1 (n patients, drug-related AE)",[1]; [14],2
same,"Hypoalbuminemia, G2 (n patients, drug-related AE)",[1]; [14],5
same,"Hypophosphatemia, G2 (n patients, drug-related AE)",[1]; [14],1
same,"Hypophosphatemia, G3 (n patients, drug-related AE)",[1]; [14],4
same,"Nausea, G1 (n patients, drug-related AE)",[1]; [14],6
same,"Neutrophil count decreased, G2 (n patients, drug-related AE)",[1]; [14],5
same,"Neutrophil count decreased, G3 (n patients, drug-related AE)",[1]; [14],3
same,"Platelet count decreased, G1 (n patients, drug-related AE)",[1]; [14],4
same,"Platelet count decreased, G2 (n patients, drug-related AE)",[1]; [14],1
same,"Platelet count decreased, G3 (n patients, drug-related AE)",[1]; [14],2
same,"Pneumonitis, G1 (n patients, drug-related AE)",[1]; [14],2
same,"Weight decreased, G1 (n patients, drug-related AE)",[1]; [14],1
same,"Weight decreased, G2 (n patients, drug-related AE)",[1]; [14],1
same,"White blood cell count decreased, G1 (n patients, drug-related AE)",[1]; [14],1
same,"White blood cell count decreased, G2 (n patients, drug-related AE)",[1]; [14],4
same,Study treatment interrupted because of grade 3 platelet count decreased,[1]; by data cut-off date,two patients
same,Study treatment interrupted owing to grade 3 neutrophil count decreased,[1]; by data cut-off date,Three patients
same,ENT dose reduction,"[1]; during DLT observation period, all cohorts",not observed
same,ENT dose reduction from 5 mg to 3 mg owing to platelet count decreased and hypophosphatemia,[1]; in combination with EXE after DLT observation period,one patient in Cohort 2 and two patients in Cohort 4
same,Serious AEs (SAEs),[1]; start of study to cut-off date,"one case each of abdominal pain (grade 2), pulmonary embolism (grade 3), maculopapular rash (grade 3), and femoral neck fracture (grade 3)"
same,AUC0–168 dose dependency,"[2]; ENT alone, 3, 5, 10 mg",increased linearly with dose
same,Steady state reached,[2]; all cohorts,"cycle 1, day 15"
same,Tmax,"[2]; human, plasma, oral administration, all cohorts",28.8 to 85.2 min
same,Cmax dose dependency,[2]; intersubject variability high at 10 mg,increased in accordance with dose escalation between 3 mg and 5 mg
same,Increase of Ac-K levels in CD19+ cells vs prior to administration,[3]; Cohort 1 (ENT 3 mg),about 1.5 fold
same,Increase of Ac-K levels in CD19+ cells vs prior to administration,[3]; Cohort 2 (ENT 5 mg),~1.9 fold
same,Increase of Ac-K levels in CD19+ cells vs prior to administration,[3]; Cohort 3 (ENT 10 mg),~2.7 fold
same,Expression of HLA-DR in CD4+ and CD8+ T-cells,[4],increased over time
same,Expression of CD69,"[4]; some patients, greater with SD ≥ 6 months",Increased expression
same,Effect on electrocardiograms,[5],no effect
same,T-cell activation markers such as CD69,[6],increases
same,Maximum tolerated dose,[7],4 mg/m^2
"C=C1C[C@@H]2[C@H](CC[C@]3(C)C(=O)CC[C@@H]23)[C@@]2(C)C=CC(=O)C=C12 [EXE, exemestane]",Influence on the PK of ENT,[2]; ENT monotherapy vs ENT + EXE 25 mg/d,no influence
same,Median OS,[8],19.84 months
same,Median PFS,[8],2.3 months
same,mPFS,[9]; 35 Japanese patients,4.21 months
same,mPFS,[9]; second-line or later hormonal therapy,4.1 months
